The structures appear in SMILES notation. Like-named read-outs stand apart in the source and are kept apart here. Where a SMILES comes first, the peptide text is derived from it.

The values below come from patent publication US20220282217A1, “COMPOSITIONS AND METHODS FOR PREPARING T CELL COMPOSITIONS AND USES THEREOF” (priority 2019, published 2022).

The test system of experiment [1] is 293T cells transduced with GATA3 neoORF, expressing the HLA of interest. Kind of experiment: Presentation of GATA3 neoantigens: HLA-eluted peptides by targeted MS/MS (PRM) (Table 14). The class given is cell-based, human. As for the experimental part:
To assess whether antigens could be processed and presented from the larger polypeptide context, peptides eluted from HLA molecules isolated from cells expressing the genes of interest were analyzed by tandem mass spectrometry (MS/MS).
Between 50 and 700 million of the transduced cells expressing peptides encoded by the GATA3 neoORF sequence were cultured and peptides were eluted from HLA-peptide complexes using an acid wash. Eluted peptides were then analyzed by targeted MS/MS using PRM. Spectral comparison between peptides derived from GATA3 neoORF and corresponding synthetic peptides were performed to confirm each detection.

Experiment [2] concerns the target T1, HLA-A02.01 (Homo sapiens, UniProt P04439, D140Y/D185E/D98H/E176V/E277Q/G131W/G231S/I119V/I121R/I166T/I218V/N151K/N90K/P208A/P217A/Q86G/Q94H/R138H/R169H).
T1 construct: made in house; host or cells: E. coli
Kind of experiment: Class I MHC peptide binding stability (pMHC-I dissociation, 125I-labeled light chain). Conditions: allele A02.01.

Another experiment deals with HLA-A11.01 (Homo sapiens, UniProt P04439, A114D/D185E/E176A/F33Y/L180Q/S129P/T187R). Kind of experiment: Class I MHC peptide binding affinity (displacement of radiolabeled reference peptide).
The next experiment deals with HLA-A03.01 (Homo sapiens, UniProt P04439). The description is as above. Conditions: (nM)), allele A03.01.
Experiment [3] has as its target HLA-A02.01 (Homo sapiens, UniProt P04439, D140Y/D185E/D98H/E176V/E277Q/G131W/G231S/I119V/I121R/I166T/I218V/L300P/L318F/N151K/N90K/P208A/P217A/Q86G/Q94H/R138H/R169H/T345S). The description is as above. Conditions: allele A02.01; read-out: Observed Affinity (IC50; (nM)). The procedure, abridged:
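MHC class I complexes were loaded with a radiolabeled reference peptide, then exposed to test peptides over a range of concentrations for 2 days. Reference peptide still bound to the complexes was quantified by size-exclusion gel filtration.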

[4] abbreviates: GATA3 neoORF transduced 293T cells expressing HLA-A*02:01 protein.
The mark [5] stands for this setting: allele A11.01, read-out: Observed Affinity (IC50, (nM)).
The mark [6] stands for this setting: read-out: Observed Affinity (IC50.

For the compound `CSCC[C@H](NC(=O)[C@@H](N)CO)C(=O)N[C@@H](CC(C)C)C(=O)N[C@H](C(=O)NCC(=O)N1CCC[C@H]1C(=O)N1CCC[C@H]1C(=O)N[C@@H](C)C(=O)N[C@@H](CCCNC(=N)N)C(=O)N[C@H](C(=O)O)C(C)C)[C@@H](C)O`, in experiment [1] (setting [4]), the “detected by mass spectrometry (peptide eluted from HLA-peptide complexes)” value (from here on “detected by mass spectrometry”) is reported as “detected”. In addition, the “Stability (T1/2 (h))” value on HLA-A02.01 [2] was determined as 21.7 h. Turning to `CC(C)C[C@H](NC(=O)[C@H](CO)NC(=O)[C@H](CO)NC(=O)[C@H](CCCNC(=N)N)NC(=O)[C@H](CCC(N)=O)NC(=O)[C@H](CC(C)C)NC(=O)[C@@H](NC(=O)[C@H](C)NC(=O)[C@@H](N)Cc1ccccc1)[C@@H](C)O)C(=O)O`, the “detected by mass spectrometry” value in experiment [1] (GATA3 neoORF transduced 293T cells expressing HLA-C*03:03 protein) is on record as “detected”. Turning to `CSCC[C@H](NC(=O)[C@H](C)N)C(=O)N[C@H](C(=O)N[C@H](C(=O)N[C@@H](CO)C(=O)N[C@@H](CO)C(=O)N[C@@H](CO)C(=O)N[C@@H](CCC(N)=O)C(=O)N[C@@H](CCCCN)C(=O)O)[C@@H](C)O)[C@@H](C)O` (H-AMTTSSSQK-OH; N-terminus and C-terminus assumed), the IC50 (commonly the midpoint of a concentration-inhibition curve) at HLA-A11.01 worked out at 162 nM; at HLA-A03.01 (Observed Affinity (IC50), 8.3 nM. Consider `CC[C@H](C)[C@H](NC(=O)[C@@H](N)CCCCN)C(=O)N[C@@H](CO)C(=O)N[C@@H](CC(N)=O)C(=O)N[C@@H](Cc1c[nH]c2ccccc12)C(=O)N[C@@H](CO)C(=O)N[C@@H](CC(C)C)C(=O)N[C@@H](CCCCN)C(=O)N[C@@H](CCCCN)C(=O)O` (H-KISNWSLKK-OH; N-terminus and C-terminus assumed), for which the IC50 came out at 9.8 nM at HLA-A11.01 (setting [5]) and 8.8 nM on HLA-A03.01 (setting [6]). On to `CSCC[C@H](NC(=O)[C@H](C)NC(=O)[C@@H](N)CO)C(=O)N[C@H](C(=O)N[C@H](C(=O)N[C@@H](CO)C(=O)N[C@@H](CO)C(=O)N[C@@H](CO)C(=O)N[C@@H](CCC(N)=O)C(=O)N[C@@H](CCCCN)C(=O)O)[C@@H](C)O)[C@@H](C)O` (H-SAMTTSSSQK-OH; N-terminus and C-terminus assumed), for which the IC50 on HLA-A11.01 (setting [5]) came to 15.8 nM; at HLA-A03.01 (setting [6]) it was 15.7 nM. Taken in the same sequence, the figures for `CC(C)C[C@H](NC(=O)[C@H](C)NC(=O)[C@@H]1CCCN1C(=O)[C@@H](NC(=O)[C@H](CCCCN)NC(=O)[C@H](CCCCN)NC(=O)[C@H](CC(C)C)NC(=O)[C@@H](N)CO)C(C)C)C(=O)N[C@@H](CCCCN)C(=O)O` (H-SLKKVPALK-OH; N-terminus and C-terminus assumed) were 129 nM and 4.4 nM. For the compound `CC[C@H](C)[C@H](NC(=O)[C@H](CCCCN)NC(=O)[C@H](CO)NC(=O)[C@@H](N)CCC(=O)O)C(=O)N[C@@H](CCSC)C(=O)N[C@@H](Cc1ccccc1)C(=O)N[C@@H](C)C(=O)N[C@H](C(=O)N[C@@H](CC(C)C)C(=O)O)[C@@H](C)O`, the “detected by mass spectrometry” value in experiment [1] (GATA3 neoORF transduced 293T cells expressing HLA-B*08:01 protein) was “detected”. With `CC(C)C[C@H](NC(=O)[C@H](C)NC(=O)[C@H](CC(C)C)NC(=O)[C@H](Cc1c[nH]cn1)NC(=O)[C@@H]1CCCN1C(=O)[C@H](CCC(=O)O)NC(=O)[C@@H]1CCCN1C(=O)[C@H](CC(C)C)NC(=O)[C@@H](N)C(C)C)C(=O)O` [VLPEPHLAL] (H-VLPEPHLAL-OH; N-terminus and C-terminus assumed), the “detected by mass spectrometry” value in experiment [1] (setting [4]) was “detected”. Turning to `CSCC[C@H](N)C(=O)N[C@@H](CC(C)C)C(=O)N[C@H](C(=O)NCC(=O)N1CCC[C@H]1C(=O)N1CCC[C@H]1C(=O)N[C@@H](C)C(=O)N[C@@H](CCCNC(=N)N)C(=O)N[C@H](C(=O)O)C(C)C)[C@@H](C)O` (H-MLTGPPARV-OH; N-terminus and C-terminus assumed), the “detected by mass spectrometry” value in experiment [1] (setting [4]) is “detected”. Moreover, on HLA-A02.01 [3], the IC50 worked out at 10.6 nM.
